Laboratory results as given in PMC5218480 (PLoS ONE, 2017).

System: MV-4-11 cells
Test: Gene expression microarray analysis (Affymetrix PrimeView) and GSEA
Format: cell-based, human
Parameters: RFU PODN (11730768_x_at) / Fold change /veh PODN (11730768_x_at) / RFU LINC00158 (11744669_a_at) / Fold change /veh LINC00158 (11744669_a_at) / RFU DUSP10 (11751237_a_at) / Fold change /veh DUSP10 (11751237_a_at) / RFU ID3 (11757404_x_at) / Fold change /veh ID3 (11757404_x_at) / RFU PLEKHG5 (11737974_s_at) / Fold change /veh PLEKHG5 (11737974_s_at) / RFU LRRC4B (11730491_at) / Fold change /veh LRRC4B (11730491_at) / RFU GIMAP4 (11747438_a_at) / Fold change /veh GIMAP4 (11747438_a_at) / RFU KRT8 (11758183_x_at) / Fold change /veh KRT8 (11758183_x_at) / RFU CNN1 (11734310_a_at) / Fold change /veh CNN1 (11734310_a_at) / RFU VPS37D (11726825_at) / Fold change /veh VPS37D (11726825_at) / RFU C10orf10 (11716522_x_at) / Fold change /veh C10orf10 (11716522_x_at) / RFU KIR2DL2 /// KIR2DL4 /// KIR2DL5A /// KIR2DL5B /// KIR2DS1 /// KIR2DS2 /// KIR2DS3 /// KIR2DS4 /// KIR3DL3 /// KIR3DL3 /// KIR3DS1 (11738374_at) / Fold change /veh KIR2DL2 /// KIR2DL4 /// KIR2DL5A /// KIR2DL5B /// KIR2DS1 /// KIR2DS2 /// KIR2DS3 /// KIR2DS4 /// KIR3DL3 /// KIR3DL3 /// KIR3DS1 (11738374_at) / RFU C1QL1 (11718748_at) / Fold change /veh C1QL1 (11718748_at) / RFU TMPRSS4 (11747572_a_at) / Fold change /veh TMPRSS4 (11747572_a_at) / RFU HAMP (11756126_x_at) / Fold change /veh HAMP (11756126_x_at) / RFU RNFT2 (11725882_a_at) / Fold change /veh RNFT2 (11725882_a_at) / RFU NR4A2 (11747474_a_at) / Fold change /veh NR4A2 (11747474_a_at) / RFU ABCC12 (11746883_a_at) / Fold change /veh ABCC12 (11746883_a_at) / RFU TMEM136 (11760407_x_at) / Fold change /veh TMEM136 (11760407_x_at) / RFU CLDN22 /// WWC2 (11732394_at) / Fold change /veh CLDN22 /// WWC2 (11732394_at) / RFU HLA-DPB1 (11760878_x_at) / Fold change /veh HLA-DPB1 (11760878_x_at) / RFU SPINT1 (11716480_a_at) / Fold change /veh SPINT1 (11716480_a_at) / RFU GAP43 (11754022_s_at) / Fold change /veh GAP43 (11754022_s_at) / RFU A4GNT (11735810_at) / Fold change /veh A4GNT (11735810_at) / RFU PRB3 (11715151_x_at) / Fold change /veh PRB3 (11715151_x_at) / RFU TUBB4B (11761932_at) / Fold change /veh TUBB4B (11761932_at) / RFU CAPN14 (11732068_a_at) / Fold change /veh CAPN14 (11732068_a_at) / RFU TMCC2 (11721928_a_at) / Fold change /veh TMCC2 (11721928_a_at) / RFU IRGQ (11745062_a_at) / Fold change /veh IRGQ (11745062_a_at) / RFU FAM174B (11720279_a_at) / Fold change /veh FAM174B (11720279_a_at) / RFU TMPRSS4 (11748680_a_at) / Fold change /veh TMPRSS4 (11748680_a_at) / RFU FAM212B (11763350_a_at) / Fold change /veh FAM212B (11763350_a_at) / RFU PLEKHG5 (11743358_a_at) / Fold change /veh PLEKHG5 (11743358_a_at) / RFU ZSCAN30 (11745921_a_at) / Fold change /veh ZSCAN30 (11745921_a_at) / RFU CMKLR1 (11741424_a_at) / Fold change /veh CMKLR1 (11741424_a_at) / RFU LOC101060620 /// MAPK8IP1 (11723275_at) / Fold change /veh LOC101060620 /// MAPK8IP1 (11723275_at) / RFU SPTSSB (11747773_x_at) / Fold change /veh SPTSSB (11747773_x_at) / RFU PRSS12 (11739890_at) / Fold change /veh PRSS12 (11739890_at) / RFU BIN1 (11741810_x_at) / Fold change /veh BIN1 (11741810_x_at) / RFU WNT11 (11732464_a_at) / Fold change /veh WNT11 (11732464_a_at) / RFU C10orf10 (11716521_a_at) / Fold change /veh C10orf10 (11716521_a_at) / RFU C5orf56 (11738089_at) / Fold change /veh C5orf56 (11738089_at) / RFU CYB561 (11721691_x_at) / Fold change /veh CYB561 (11721691_x_at) / RFU ANKRD19P (11752326_a_at) / Fold change /veh ANKRD19P (11752326_a_at) / RFU OR2T12 /// OR2T33 /// OR2T8 (11738714_s_at) / Fold change /veh OR2T12 /// OR2T33 /// OR2T8 (11738714_s_at) / RFU VCAN (11748164_a_at) / Fold change /veh VCAN (11748164_a_at) / RFU JSRP1 (11732532_at) / Fold change /veh JSRP1 (11732532_at) / RFU KRTAP10-11 (11738290_x_at) / Fold change /veh KRTAP10-11 (11738290_x_at) / RFU MYO3A (11730013_a_at) / Fold change /veh MYO3A (11730013_a_at) / RFU EBF3 (11725865_a_at) / Fold change /veh EBF3 (11725865_a_at) / RFU CAMK2N1 (11719241_x_at) / Fold change /veh CAMK2N1 (11719241_x_at) / RFU C5orf56 (11738088_a_at) / Fold change /veh C5orf56 (11738088_a_at) / RFU OLFML3 (11715873_a_at) / Fold change /veh OLFML3 (11715873_a_at) / RFU LOC100653217 /// NTM (11731650_a_at) / Fold change /veh LOC100653217 /// NTM (11731650_a_at) / RFU MAPK11 (11762145_a_at) / Fold change /veh MAPK11 (11762145_a_at) / RFU FIZ1 (11724087_x_at) / Fold change /veh FIZ1 (11724087_x_at) / RFU OASL (11726364_x_at) / Fold change /veh OASL (11726364_x_at) / RFU SOX15 (11748057_x_at) / Fold change /veh SOX15 (11748057_x_at) / RFU CD79A (11719716_a_at) / Fold change /veh CD79A (11719716_a_at) / RFU HIST1H1D (11736915_at) / Fold change /veh HIST1H1D (11736915_at) / RFU CASKIN2 (11723855_a_at) / Fold change /veh CASKIN2 (11723855_a_at) / RFU LOC730098 (11760151_x_at) / Fold change /veh LOC730098 (11760151_x_at) / RFU OR4N2 (11742367_at) / Fold change /veh OR4N2 (11742367_at) / RFU PRRT2 (11749266_a_at) / Fold change /veh PRRT2 (11749266_a_at) / RFU SNX32 (11753110_a_at) / Fold change /veh SNX32 (11753110_a_at) / RFU CDHR5 (11726645_a_at) / Fold change /veh CDHR5 (11726645_a_at) / RFU RCAN1 (11760418_a_at) / Fold change /veh RCAN1 (11760418_a_at) / RFU FAM167A (11723789_a_at) / Fold change /veh FAM167A (11723789_a_at) / RFU FAM26E (11764081_at) / Fold change /veh FAM26E (11764081_at) / RFU ISYNA1 (11749810_s_at) / Fold change /veh ISYNA1 (11749810_s_at) / RFU ACY1 (11761880_at) / Fold change /veh ACY1 (11761880_at) / RFU 11764098_at / Fold change /veh 11764098_at / RFU SAMD14 (11745864_x_at) / Fold change /veh SAMD14 (11745864_x_at) / RFU NPB (11741838_a_at) / Fold change /veh NPB (11741838_a_at) / RFU TMPRSS6 (11731388_a_at) / Fold change /veh TMPRSS6 (11731388_a_at) / RFU KRTAP10-2 (11738614_at) / Fold change /veh KRTAP10-2 (11738614_at) / RFU ARHGAP8 /// PRR5-ARHGAP8 (11727945_x_at) / Fold change /veh ARHGAP8 /// PRR5-ARHGAP8 (11727945_x_at) / RFU KRTAP5-7 /// NADSYN1 (11734609_at) / Fold change /veh KRTAP5-7 /// NADSYN1 (11734609_at) / RFU RASL12 (11751679_a_at) / Fold change /veh RASL12 (11751679_a_at) / RFU CDKN2B (11736163_a_at) / Fold change /veh CDKN2B (11736163_a_at) / RFU PRF1 (11729649_at) / Fold change /veh PRF1 (11729649_at) / RFU, ZNF638 /// ZNF638-IT1 / Fold change vs veh, ZNF638 /// ZNF638-IT1 / RFU, PANK3 / Fold change vs veh, PANK3 / RFU, SH3YL1 / Fold change vs veh, SH3YL1 / RFU, ZEB2 / Fold change vs veh, ZEB2 / RFU, NRIP1 / Fold change vs veh, NRIP1 / RFU, PTTG1IP / Fold change vs veh, PTTG1IP / RFU, CAPN2 / Fold change vs veh, CAPN2 / RFU, MED14 / Fold change vs veh, MED14 / RFU, SNORA58 / Fold change vs veh, SNORA58 / RFU, C1orf63 / Fold change vs veh, C1orf63 / RFU, LRRFIP1 / Fold change vs veh, LRRFIP1 / RFU, NDUFAF7 / Fold change vs veh, NDUFAF7 / RFU, SLC12A2 / Fold change vs veh, SLC12A2 / RFU, IBTK / Fold change vs veh, IBTK / RFU, ESF1 / Fold change vs veh, ESF1 / Fold change vs veh, TMEM50B / RFU, TAOK1 / Fold change vs veh, TAOK1 / RFU, ACBD3 / Fold change vs veh, ACBD3 / RFU, TMA16 / Fold change vs veh, TMA16 / RFU, RWDD3 / Fold change vs veh, RWDD3 / RFU, BCAT1 / Fold change vs veh, BCAT1 / RFU, EDEM3 / Fold change vs veh, EDEM3 / RFU, TMEM33 / Fold change vs veh, TMEM33 / RFU, WDR75 / Fold change vs veh, WDR75 / RFU, AHCTF1 / Fold change vs veh, AHCTF1 / RFU, TFRC / Fold change vs veh, TFRC / RFU, ZDHHC17 / Fold change vs veh, ZDHHC17 / RFU, NOM1 / Fold change vs veh, NOM1 / RFU, ARL8B / Fold change vs veh, ARL8B / RFU, ZBTB11 / Fold change vs veh, ZBTB11 / RFU, TAMM41 / Fold change vs veh, TAMM41 / RFU, KIAA1704 /// LOC100996395 / Fold change vs veh, KIAA1704 /// LOC100996395 / RFU, ING1 / Fold change vs veh, ING1 / RFU, TRMT61B / Fold change vs veh, TRMT61B / RFU, FUBP3 / Fold change vs veh, FUBP3 / RFU, TP53 / Fold change vs veh, TP53 / RFU, TNKS2 / Fold change vs veh, TNKS2 / RFU, ZFP14 / Fold change vs veh, ZFP14 / RFU, ACTR2 / Fold change vs veh, ACTR2 / RFU, PPP3R1 / Fold change vs veh, PPP3R1 / RFU, PIK3R1 / Fold change vs veh, PIK3R1 / RFU, HNRNPA1 / Fold change vs veh, HNRNPA1 / RFU, RNF170 / Fold change vs veh, RNF170 / RFU, ZNF28 / Fold change vs veh, ZNF28 / RFU, RNGTT / Fold change vs veh, RNGTT / RFU, OGT / Fold change vs veh, OGT / RFU, BRD1 / Fold change vs veh, BRD1 / RFU, MARS / Fold change vs veh, MARS / RFU, ZNF655 / Fold change vs veh, ZNF655 / RFU, FAHD1 / Fold change vs veh, FAHD1 / RFU, BDP1 / Fold change vs veh, BDP1 / RFU, LRRCC1 / Fold change vs veh, LRRCC1 / RFU, ARID1A / Fold change vs veh, ARID1A / RFU, ZNF146 / Fold change vs veh, ZNF146 / RFU, ZNF330 / Fold change vs veh, ZNF330 / RFU, GPN3 / Fold change vs veh, GPN3 / RFU, C9orf123 / Fold change vs veh, C9orf123 / RFU, N4BP2L2 / Fold change vs veh, N4BP2L2 / RFU, ARFIP1 / Fold change vs veh, ARFIP1 / RFU, FAM179B / Fold change vs veh, FAM179B / RFU, BCL10 / Fold change vs veh, BCL10 / RFU, UHRF1BP1L / Fold change vs veh, UHRF1BP1L / RFU, BET1 / Fold change vs veh, BET1 / RFU, CNOT2 / Fold change vs veh, CNOT2 / RFU, ZNF268 / Fold change vs veh, ZNF268 / Fold change vs veh, ZNF507 / RFU, DGCR2 / Fold change vs veh, DGCR2 / RFU, WDSUB1 / Fold change vs veh, WDSUB1 / Fold change vs veh, HSP90B1 /// MIR3652 / RFU, ADSS / Fold change vs veh, ADSS / RFU, GK / Fold change vs veh, GK / RFU, ZNF148 / Fold change vs veh, ZNF148 / RFU, TAF9 / Fold change vs veh, TAF9 / RFU, SLC1A5 / Fold change vs veh, SLC1A5 / RFU, SLMO2 / Fold change vs veh, SLMO2 / RFU, ABCC4 / Fold change vs veh, ABCC4 / RFU, LOC101060439 /// RAP1B / Fold change vs veh, LOC101060439 /// RAP1B / RFU, RFX7 / Fold change vs veh, RFX7 / RFU, GTPBP10 / Fold change vs veh, GTPBP10 / RFU, CNEP1R1 / Fold change vs veh, CNEP1R1 / RFU, BIVM-ERCC5 /// ERCC5 / Fold change vs veh, BIVM-ERCC5 /// ERCC5 / RFU, ILF3 / Fold change vs veh, ILF3 / RFU 11762660_at / Fold change /veh 11762660_at / RFU VCAN (11757783_s_at) / Fold change /veh VCAN (11757783_s_at) / RFU DDX43 (11728927_at) / Fold change /veh DDX43 (11728927_at) / RFU KRT8 (11758188_x_at) / Fold change /veh KRT8 (11758188_x_at) / RFU NKD1 (11759106_at) / Fold change /veh NKD1 (11759106_at) / RFU SRD5A1 (11742802_a_at) / Fold change /veh SRD5A1 (11742802_a_at) / RFU TPSAB1 /// TPSB2 (11721975_s_at) / Fold change /veh TPSAB1 /// TPSB2 (11721975_s_at) / RFU GSTM3 (11746129_a_at) / Fold change /veh GSTM3 (11746129_a_at) / RFU IL23R (11737362_x_at) / Fold change /veh IL23R (11737362_x_at) / RFU TMEM51 (11727254_a_at) / Fold change /veh TMEM51 (11727254_a_at) / RFU PIWIL2 (11732686_x_at) / Fold change /veh PIWIL2 (11732686_x_at) / RFU ORM1 (11744905_x_at) / Fold change /veh ORM1 (11744905_x_at) / RFU CCDC152 (11743942_at) / Fold change /veh CCDC152 (11743942_at) / RFU ECM1 (11717891_a_at) / Fold change /veh ECM1 (11717891_a_at) / RFU IL23R (11748794_a_at) / Fold change /veh IL23R (11748794_a_at) / RFU TNFAIP8L3 (11732012_x_at) / Fold change /veh TNFAIP8L3 (11732012_x_at) / RFU MBOAT4 (11741988_at) / Fold change /veh MBOAT4 (11741988_at) / RFU 11764193_at / Fold change /veh 11764193_at / RFU TMEM53 (11763286_at) / Fold change /veh TMEM53 (11763286_at) / RFU MAGEB2 (11727129_at) / Fold change /veh MAGEB2 (11727129_at) / RFU TMEM200A (11744735_a_at) / Fold change /veh TMEM200A (11744735_a_at) / RFU CCDC152 (11751479_a_at) / Fold change /veh CCDC152 (11751479_a_at) / RFU FAM211A (11726209_a_at) / Fold change /veh FAM211A (11726209_a_at) / RFU RGS16 (11746705_a_at) / Fold change /veh RGS16 (11746705_a_at) / RFU VCAN (11755009_s_at) / Fold change /veh VCAN (11755009_s_at) / RFU RHOB (11743442_s_at) / Fold change /veh RHOB (11743442_s_at) / RFU RGS16 (11720943_a_at) / Fold change /veh RGS16 (11720943_a_at) / RFU RGS16 (11720944_at) / Fold change /veh RGS16 (11720944_at) / RFU, VPS4B / Fold change vs veh, VPS4B / RFU, CREB1 / Fold change vs veh, CREB1 / RFU, DNAJC13 / Fold change vs veh, DNAJC13 / RFU, GNAQ / Fold change vs veh, GNAQ / RFU, CDK5R1 / Fold change vs veh, CDK5R1 / RFU, ZRANB3 / Fold change vs veh, ZRANB3 / RFU, CUL4A / Fold change vs veh, CUL4A / RFU, CCNY / Fold change vs veh, CCNY / RFU, UFL1 / Fold change vs veh, UFL1 / RFU, COG3 / Fold change vs veh, COG3 / RFU, DIAPH2 / Fold change vs veh, DIAPH2 / RFU, SKA2 / Fold change vs veh, SKA2 / RFU, AFF3 / Fold change vs veh, AFF3 / RFU, LMF1 / Fold change vs veh, LMF1 / RFU, IPO11 / Fold change vs veh, IPO11 / RFU, DFFB / Fold change vs veh, DFFB / RFU, FOXP1 / Fold change vs veh, FOXP1 / RFU, CARD8 / Fold change vs veh, CARD8 / RFU, STRN3 / Fold change vs veh, STRN3 / RFU, ADK / Fold change vs veh, ADK / RFU, RASSF2 / Fold change vs veh, RASSF2 / RFU, WIPF1 / Fold change vs veh, WIPF1 / RFU, LARP1B / Fold change vs veh, LARP1B / RFU, RASA1 / Fold change vs veh, RASA1 / RFU, RB1 / Fold change vs veh, RB1 / RFU, PPFIA1 / Fold change vs veh, PPFIA1 / RFU, MAT2A / Fold change vs veh, MAT2A / RFU, CCT5 / Fold change vs veh, CCT5 / RFU, WDR92 / Fold change vs veh, WDR92 / RFU, CUX1 / Fold change vs veh, CUX1 / RFU, TTC7A / Fold change vs veh, TTC7A / RFU, TMEM135 / Fold change vs veh, TMEM135 / RFU, DEPTOR / Fold change vs veh, DEPTOR / RFU, CPM / Fold change vs veh, CPM / RFU, DNAJB6 / Fold change vs veh, DNAJB6 / RFU, CACNA2D3 / Fold change vs veh, CACNA2D3 / RFU, DTX4 / Fold change vs veh, DTX4 / RFU, TFCP2 / Fold change vs veh, TFCP2 / RFU, GMCL1 /// GMCL1P1 / Fold change vs veh, GMCL1 /// GMCL1P1 / RFU, AEBP2 / Fold change vs veh, AEBP2 / RFU, SNHG1 /// SNORD22 /// SNORD25 /// SNORD26 /// SNORD27 /// SNORD28 /// SNORD29 /// SNORD31 / Fold change vs veh, SNHG1 /// SNORD22 /// SNORD25 /// SNORD26 /// SNORD27 /// SNORD28 /// SNORD29 /// SNORD31 / Fold change (Aza/veh), C12orf56 (ProbeSet 11735607_a_at) / Fold change (ACY-1035/veh), C12orf56 (ProbeSet 11735607_a_at) / Fold change (Aza/veh), FGFR1OP (ProbeSet 11751329_s_at) / Fold change (ACY-1035/veh), FGFR1OP (ProbeSet 11751329_s_at) / Fold change (Aza/veh), VPS36 (ProbeSet 11739960_a_at) / Fold change (ACY-1035/veh), VPS36 (ProbeSet 11739960_a_at) / RFU SYPL1 (11715823_x_at) / Fold change /veh SYPL1 (11715823_x_at) / RFU IGFBP7 (11715501_s_at) / Fold change /veh IGFBP7 (11715501_s_at) / RFU REEP3 (11722064_at) / Fold change /veh REEP3 (11722064_at) / RFU IGLL1 (11728026_x_at) / Fold change /veh IGLL1 (11728026_x_at): dose or concentration left out as unconfirmed
Details: MV-4-11 cells, 48 hours

In the case of `Nc1ncn([C@@H]2O[C@H](CO)[C@@H](O)[C@H]2O)c(=O)n1` [azacitidine], the “RFU C5orf56 (11738088_a_at)” value is reported as 66.32 RFU.
